{"source": "patent US7307096B2", "about": "“Combined agents for treatment of glaucoma” (Sankyo Company, Limited, priority 1999, dated 2007)", "key": {"[1]": {"system": "ocular hypertension models of New Zealand White Rabbits", "test": "Intraocular pressure lowering test (4), ocular hypertension model (Example 4)", "format": "in vivo", "conditions": "relative to control group", "protocol": "Using New Zealand White Rabbits having body weights of 2 to 3 kg, ocular hypertension models were prepared in accordance with the method of Kurihara, et al. (Jpn. J. Ocular Pharmacology, 4, 62-64(1990)) and the intraocular pressure lowering action of the test compounds was investigated.\nDescribed specifically, the rabbits were maintained under general anesthesia and their intraocular pressure was measured using a tonometer (“Alcon Applanation Pneumatonography”; manufactured by Alcon). After instillation of local anesthetics into the eyes of the rabbits, 0.1 ml of a 5% sodium chloride solution were injected into their vitreous bodies through a 30 gauge needle. An increase in the intraocular pressure was confirmed 30 minutes after injection, followed by administration of 50 μl of an eye drop solution containing the test compound. Their intraocular pressure was then measured for 2 hours at intervals of 30 minutes (single administration test).\nAn ocular hypertension model was made as in Example 1. After confirmation of an increase in the intraocular pressure, 50 μl of a test compound 1 was instilled to the eyes, followed by application of the same amount of a test compound 2 into the eyes after 5 minutes. After this second administration, the intraocular pressure was measured for 2 hours at intervals of 1 hour. Intraocular pressure lowering was determined by the below-described equation. Decrease in intraocular pressure (mmHg)=(intraocular pressure after instillation of a compound group−intraocular pressure before instillation of the compound group)−(intraocular pressure after instillation of a control group−intraocular pressure before instillation of the control group)\nThe term “control group” in the above-described formula means a group to which physiological saline was administered to the eyes instead of each of the test compound 1 and test compound 2. Groups other than this control group are a compound group.\nAlso in this Example, the same test compounds as described in Example 1 were employed."}, "[2]": {"system": "intraocular pressure of New Zealand White Rabbits", "test": "Intraocular pressure lowering test (3), change ratio of intraocular pressure (Example 3)", "format": "in vivo", "conditions": "50 μl each, four hours after second administration", "protocol": "Using a tonometer (“Alcon Applanation Pneumatonography; manufactured by Alcon), the intraocular pressure of each of New Zealand White Rabbits having body weights of 2 to 3 kg was measured (without anesthesia), followed by administration of 50 μl of a test compound in the form of eye drops. The intraocular pressure was then measured for 4 hours at intervals of one hour (single administration test).\nAfter the measurement of the intraocular pressure as in Example 2, 50 μl of a solution of test compound 1 was instilled into the eyes, followed by administration of the same amount of the solution of test compound 2 after 5 minutes. Four hours after the second administration, the intraocular pressure was measured and the change ratio of the intraocular pressure was determined by the below-described equation: The change ratio of intraocular pressure (%)=[(intraocular pressure after administration of eye drops−intraocular pressure before administration of eye drops)/intraocular pressure before administration of eye drops]×100.\nIn this Example, the same test compounds as Example 1 were employed. The results are shown below in Tables 1 and 2."}, "glaucoma": {"system": "glaucoma", "conditions": "clinical trial; Eur. J. Ophthalmol. 1997, 7(1): 35-9; cited from earlier work"}}, "note": "Structures can show the parent of a compound that is named as a salt.", "data": [{"smiles": "CCCc1nc(C(C)(C)O)c(C(=O)O)n1Cc1ccc(-c2ccccc2-c2nnn[nH]2)cc1", "note": "[Compound A]", "values": [{"measurement": "Decrease in intraocular pressure (mmHg)", "setting": "[1]; Compound A (1%) then physiological saline, time after instillation 0 min", "result": "0.0 ± 2.1", "unit": "mmHg"}, {"measurement": "Decrease in intraocular pressure (mmHg)", "setting": "[1]; Compound A (1%) then physiological saline, time after instillation 60 min", "result": "−1.7 ± 2.2", "unit": "mmHg"}, {"measurement": "Decrease in intraocular pressure (mmHg)", "setting": "[1]; Compound A (1%) then physiological saline, time after instillation 120 min", "result": "−3.4 ± 1.7", "unit": "mmHg"}, {"measurement": "Change ratio (%) of intraocular pressure", "setting": "[2]; Table 1, Compound A (4%) then physiological saline", "result": "11.4 ± 5.5", "unit": "%"}, {"measurement": "Change ratio (%) of intraocular pressure", "setting": "[2]; Table 2, Compound A (4%) then physiological saline", "result": "11.5 ± 4.1", "unit": "%"}]}, {"smiles": "CC(C)OC(=O)CCC/C=C\\C[C@@H]1[C@@H](CC[C@@H](O)CCc2ccccc2)[C@H](O)C[C@@H]1O", "note": "[Compound D, latanoprost]", "values": [{"measurement": "Change ratio (%) of intraocular pressure", "setting": "[2]; Table 2, physiological saline then Compound D (0.005%)", "result": "17.2 ± 8.8", "unit": "%"}]}, {"smiles": "CCCCC(=O)N(Cc1ccc(-c2ccccc2-c2nnn[nH]2)cc1)[C@H](C(=O)O)C(C)C", "note": "[CGP-48933]", "values": [{"measurement": "effect for glaucoma", "setting": "glaucoma", "result": "insufficient"}]}, {"smiles": "CCCCCCCC(=O)CC[C@@H]1[C@@H](C/C=C\\CCCC(=O)OC(C)C)[C@@H](O)C[C@H]1O", "note": "[Compound C, isopropyl unoprostone]", "values": [{"measurement": "Change ratio (%) of intraocular pressure", "setting": "[2]; Table 1, physiological saline then Compound C (0.12%)", "result": "−2.4 ± 9.1", "unit": "%"}]}, {"smiles": "CC(C)(C)NC[C@H](O)COc1nsnc1N1CCOCC1", "note": "[Compound B, timolol maleate]", "values": [{"measurement": "Decrease in intraocular pressure (mmHg)", "setting": "[1]; physiological saline then Compound B (0.25%), time after instillation 0 min", "result": "0.0 ± 1.5", "unit": "mmHg"}, {"measurement": "Decrease in intraocular pressure (mmHg)", "setting": "[1]; physiological saline then Compound B (0.25%), time after instillation 60 min", "result": "−2.0 ± 3.5", "unit": "mmHg"}, {"measurement": "Decrease in intraocular pressure (mmHg)", "setting": "[1]; physiological saline then Compound B (0.25%), time after instillation 120 min", "result": "−1.9 ± 3.2", "unit": "mmHg"}]}]}
